Legend:
[1] = system: neuraminidase (NA) of A(H1N1)pdm09 viruses; format: biochemical, influenza A(H1N1)pdm09 virus
[2] = system: neuraminidase (NA) of B/Victoria-lineage viruses; format: biochemical, influenza B/Victoria-lineage virus
[3] = system: neuraminidase (NA) of B/Yamagata-lineage viruses; format: biochemical, influenza B/Yamagata-lineage virus
[4] = system: former seasonal A(H1N1) H275Y virus; conditions: ref Kawai et al., 2009, Dharan et al., 2010, Matsuzaki et al., Saito et al.; cited from earlier work
[5] = system: former seasonal A(H1N1) H275Y virus; conditions: ref Kawai et al., 2009, Dharan et al., 2010, Matsuzaki et al., Saito et al.; cited from earlier work; remark: listed apart in the source

| Compound | Included in phenotypic analysis: inhibition category (HRI/RI/NI) [1] | effect of NA substitution on susceptibility [1] | inhibition category (HRI/RI/NI) [2] | effect of NA substitution on susceptibility [3] | inhibition category in vitro [4] | inhibition category (HRI/RI/NI) [3] | clinical resistance [5] |
| --- | --- | --- | --- | --- | --- | --- | --- |
| [H]/N=C(\N)N[C@H]1C=C(C(=O)O)O[C@@H]([C@H](OC)[C@H](O)CO)[C@@H]1NC(C)=O [Laninamivir, laninamivir] | RI (key: NI < 10-fold; RI 10 to 100-fold; HRI > 100-fold) | little or no effect | HRI (key: NI < 5-fold; RI 5 to 50-fold; HRI > 50-fold) | no effect |  |  |  |
| CCC(CC)[C@H](NC(C)=O)[C@@H]1[C@H](O)[C@@H](C(=O)O)C[C@H]1N=C(N)N [Peramivir, peramivir] |  |  | HRI (key: NI < 5-fold; RI 5 to 50-fold; HRI > 50-fold) |  | HRI (HRI > 100-fold) |  |  |
| CCOC(=O)C1=C[C@@H](OC(CC)CC)[C@H](NC(C)=O)[C@@H](N)C1 [Oseltamivir, oseltamivir] |  |  | RI (key: NI < 5-fold; RI 5 to 50-fold; HRI > 50-fold) |  | HRI (HRI > 100-fold) | RI (key: NI < 5-fold; RI 5 to 50-fold; HRI > 50-fold) | clinically resistant |
| CC(=O)N[C@H]1[C@H]([C@H](O)[C@H](O)CO)OC(C(=O)O)=C[C@@H]1N=C(N)N [Zanamivir, zanamivir] |  | little or no effect | HRI (key: NI < 5-fold; RI 5 to 50-fold; HRI > 50-fold) | no effect |  |  |  |
